The source of these data is PubChem BioAssay AID2305 (GlaxoSmithKline (GSK), 2010).

This assay concerns P. falciparum 3D7 growth, pLDH absorbance. Description: P. falciparum 3D7 growth inhibition, dose response, strain 3D7 (AID 2305).

`CCCCCCOc1ccc(C(=O)NCCCC2CCN(CCCCCNC(=O)C=Cc3ccc(Cl)c(Cl)c3)CC2)cc1` showed an IC50 of 850 nM.

Take `NC(=O)COc1c(C2CCN(CCCCNC(=O)c3ccc(-c4ccc(Cl)cc4)c(O)c3)CC2)ccc2c1CCCC2`: the IC50 turned out to be 710 nM.

Turning to `NCc1cccc(-c2cccc(CNC3CCN(Cc4ccccc4)CC3)c2)c1`, the IC50 was 720 nM.

Regarding `Cn1cccc1CCNCc1ccc(-c2cccc(-c3nc4ccc(F)cc4[nH]3)c2)cc1`, the concentration for half-maximal inhibition (IC50) amounted to 1220 nM.

In the case of `CCCC(=O)c1cnc2c(I)cccc2c1Nc1ccccc1C`, the IC50 was 1160 nM.

On to `CCOc1ccc(Br)cc1/C=C/C(=O)Nc1ccc2c(c1)CN(C)CCC2`, for which the half-inhibitory concentration (IC50) turned out to be 820 nM.

`COc1cc(OC)cc(-c2nn(-c3ccc([N+](=O)[O-])cc3Cl)c(=S)n2Cc2ccco2)c1` showed a 50% inhibitory concentration (IC50) of 840 nM.

`CN1CCCC1CCNc1ncc2c(-c3ccc(NC(=O)Nc4cc(C(F)(F)F)ccc4F)c(F)c3)nn(C)c2n1` (stereo unspecified) showed an IC50 of 290 nM.

`CC(=O)Oc1cc(OCc2ccccc2)c(OC(C)=O)c(OCc2ccccc2)c1` displayed an IC50 of 410 nM.

`CCN(CC)CCN(Cc1ccc(-c2ccc(C(F)(F)F)cc2)cc1)C(=O)Cn1c(SCc2ccc(F)cc2)nc(=O)c2sccc21` yielded an IC50 of 990 nM.

Compound `CN(C)CCNC(=O)c1csc(Nc2ccc(Cl)c(Cl)c2)n1` gave a 50% inhibitory concentration (IC50) of 220 nM.

As for `Cc1nc(N)nc(N)c1OCc1cccc2ccccc12`, the concentration for half-maximal inhibition (IC50) turned out to be 70 nM.

In turn, `O=C(Nc1ccc(CN2CCOCC2)cc1)c1ccc(-c2cc(Cl)ccc2Cl)o1` showed an IC50 of 610 nM.

On to `CN1CCN(CCCN(Cc2cccc(-c3cccc(CNCc4ccc5c(c4)OCO5)c3)c2)C(=O)CCC2CCCC2)CC1`, for which the IC50 turned out to be 950 nM.

Compound `CC(C)c1ccc(CN2CCC(NC(=O)c3ccc(-c4cccc(F)c4)s3)CC2)cc1` came in with an IC50 of 1330 nM.

With `CN(C)c1ccc(NC2=NC(C)(C)N=C(N)N2)cc1`, the 50% inhibitory concentration (IC50) was 220 nM.

`COc1ccc2nc(C)cc(Nc3ccc(Cl)c(Cl)c3)c2c1` had a half-maximal inhibitory concentration (IC50) of 440 nM.

In the case of `NC(=O)c1ccc(NCC(=O)Nc2cccc(-c3cccc(-c4nc5ccc(C(F)(F)F)cc5[nH]4)c3)c2)cc1`, the IC50 is 270 nM.

For `COc1ccccc1N1CCN(CCCCNC(=O)c2ccc(NC(=O)c3ccc4ccccc4c3)cc2)CC1`, the IC50 worked out at 800 nM.

For `COc1ccc(CN2CCC(CNCC(c3ccccc3)c3ccccc3)CC2)cc1`, the IC50 is 230 nM.

With `COc1ccc(NC(=O)/C=C/c2ccc(-c3ccccc3)cc2)cc1N1CCN(C)CC1`, the half-maximal inhibitory concentration (IC50) stood at 910 nM.

For the compound `CC(C)(C)NS(=O)(=O)c1cc(C(=O)N2CCC(CCN3CCC(O)(c4cccc(C(F)(F)F)c4)CC3)(c3cccc(F)c3)CC2)c(Cl)cc1F`, the IC50 was 860 nM.

The compound `COc1cc(N(Cc2ccc(F)cc2)C(=O)c2ccc(-c3ccccc3)cc2)ccc1OCCN1CCCC1` displayed an IC50 of 830 nM.

On to `FC(F)(F)c1ccc2nc(-c3ccc(-c4cccc(CN5CCN(c6ccncc6)CC5)c4)cc3)[nH]c2c1`, for which the IC50 stood at 120 nM.

For the compound `CCNc1cc(C(=O)N[C@@H](Cc2ccccc2)[C@H](O)CNC(C)CCCC(C)C)cc(N2CCCS2(=O)=O)c1` (stereo partly specified), the 50% inhibitory concentration (IC50) was determined as 220 nM.

As to `Cc1cc(N[C@@H](Cc2ccccc2)C(=O)NCc2cccc(F)c2)nc(NCc2ccccc2C)n1`, the IC50 turned out to be 980 nM.

For `COc1ccc(Cc2cnc3nc(N)nc(N)c3c2C)cc1OC`, the IC50 is 10 nM.

Turning to `O=C(Nc1ccc(S(=O)(=O)N2CCOCC2)cc1)c1cc(-c2cc(Cl)ccc2O)n[nH]1`, the IC50 is 770 nM.

As to `CCn1ccc2c(N3CCCC3=O)cc(C(=O)N[C@@H](Cc3ccccc3)[C@H](O)CNC(C)(C)CCCC(C)C)cc21`, the half-inhibitory concentration (IC50) is 350 nM.

For `O=C(Nc1ccc(CN2CCC(c3c[nH]c4ccc(O)cc34)CC2)cc1)c1ccc(-c2ccccc2)cc1`, the IC50 turned out to be 250 nM.

With `COC(=O)c1ccc(Nc2nccc(Nc3ccc(Oc4ccccc4)cc3)n2)cc1`, the IC50 was determined as 1020 nM.

In turn, `c1cc(CNc2ncc(-c3ccsc3)c(-c3nccs3)n2)ccn1` gave an IC50 of 360 nM.

`CCNc1cc(C(=O)N[C@@H](Cc2ccccc2)[C@H](O)CNC2(C)CCCCC2)cc(N2CCCCS2(=O)=O)c1` came in with a 50% inhibitory concentration (IC50) of 160 nM.

`CNc1nc(NN=Cc2cc([N+](=O)[O-])c(Cl)cc2Cl)nc(Nc2cccc(C(F)(F)F)c2)n1` displayed a 50% inhibitory concentration (IC50) of 730 nM.

For the compound `COc1ccc(CNC2CCN(C)CC2)cc1-c1ccc(S(=O)(=O)NCCc2ccccn2)cc1`, the IC50 was determined as 1090 nM.

On to `COc1ccc(CCC(C)N2C[C@@H](N)[C@H](c3cn(C)c4cnccc34)C2)cc1` (stereo partly specified), for which the half-inhibitory concentration (IC50) was 1360 nM.

`Nc1cccc(CNCc2cccc(-c3cccc(-c4nc5ccccc5[nH]4)c3)c2)c1` had a half-maximal inhibitory concentration (IC50) of 610 nM.

The compound `O=C1C(C2CCC(c3ccc(Cl)cc3)CC2)=C2OCC3COC2(O3)c2ccccc21` (stereo unspecified) yielded a 50% inhibitory concentration (IC50) of 40 nM.

Compound `c1csc(-c2nc(NCC3CCCO3)ncc2-c2ccsc2)n1` (stereo unspecified) gave a 50% inhibitory concentration (IC50) of 490 nM.

`CCn1c(-c2nonc2N)nc2c(-c3cccc(NC(=O)Nc4ccc(C#N)cc4)c3)ncc(OCCCN)c21` came in with a half-maximal inhibitory concentration (IC50) of 1510 nM.

`Clc1ccc(Nc2nc(Nc3ccc(Cl)c(Cl)c3)nc(Sc3nc4ccccc4[nH]3)n2)cc1Cl` came in with an IC50 of 490 nM.

Regarding `CCOc1cc(C(=O)N[C@@H](Cc2ccccc2)[C@H](O)CNC(C)(C)c2cccc(OC)c2)cc(N2CCCS2(=O)=O)c1`, the IC50 is 220 nM.

`COc1ccc(C(=O)Nc2nonc2-c2ccc(OC)c(OC)c2)cc1Cl` showed an IC50 of 670 nM.

As for `CC(C)(C)c1ccc(CN2CCCCC(NC(=O)c3cc(-c4ccccc4F)cs3)C2)cc1` (stereo unspecified), the IC50 turned out to be 270 nM.

For the compound `CCOC(=O)C1=C(C)N=c2sc(=Cc3cc(Cl)ccc3O)c(=O)n2C1c1cc(OC)c(OC)cc1Br` (stereo unspecified), the IC50 stood at 990 nM.

Consider `Nc1c(Cl)cc(C(O)CNCCCCCOCCc2ccc3ccccc3n2)cc1Cl` (stereo unspecified), for which the IC50 worked out at 1020 nM.

Compound `COc1ccc(NC(=O)c2ccc(-c3nc(-c4cccc(C(F)(F)F)c4)cs3)cc2)cc1N1CCN(C)CC1` had an IC50 of 820 nM.

The compound `CC(C)C[C@@H](/C=N/N1CCOC1=O)NC(=O)[C@H](CC(C)C)NC(=O)c1ccc(OCCN2CCOCC2)cc1` showed an IC50 of 220 nM.

`Cc1cc(F)ccc1Nc1nc(N(C)c2ccccc2)c2cc(OCCCN(C)C)ccc2n1` had an IC50 of 720 nM.

Compound `Oc1ccc(CCNc2nc(NCCCOc3ccccc3-c3ccncc3)nc(N3CCNCC3)n2)cc1` displayed an IC50 of 1110 nM.

For `CCOc1ccc(NC(=O)c2cccc(CN3CCCN(Cc4cccc(O)c4)CC3)c2)cc1`, the 50% inhibitory concentration (IC50) turned out to be 1080 nM.

Compound `Cc1cccc2[nH]c(-c3cccc(-c4ccc(NC(=O)c5cccc(C(N)=O)c5)cc4)c3)nc12` displayed an IC50 of 410 nM.

`CC(C)(C)c1ccc(NC(=O)c2ccc(CN3CCCN(Cc4cccc(O)c4)CC3)cc2)cc1` came in with an IC50 of 670 nM.

In turn, `COc1ccc2nc3cc(Cl)ccc3c(N)c2c1` gave an IC50 of 170 nM.

In turn, `COc1ccc2nc(C)cc(NN=Cc3cc(C)ccc3O)c2c1` registered a concentration for half-maximal inhibition (IC50) of 140 nM.

Regarding `CN(Cc1ccc(-c2ccc(C(F)(F)F)cc2)cc1)C(=O)Cn1c(CCc2cccc(F)c2F)cc(=O)c2ccc(OCCCN3CCCCC3)cc21`, the IC50 was found to be 710 nM.

`O=C(/C=C/c1ccc(Cl)c(Cl)c1)NCCCCCN1CCC(NC(=O)NC2CCCC2)CC1` gave a half-maximal inhibitory concentration (IC50) of 630 nM.

In turn, `Cc1[nH]c2ccccc2c1C1=CCN(C[C@H]2C[C@@H]2C(=O)c2ccccc2)CC1` showed a concentration for half-maximal inhibition (IC50) of 350 nM.

As for `CCCCCc1cnc2nc(N)nc(N)c2c1C`, the half-maximal inhibitory concentration (IC50) is 210 nM.

In turn, `Oc1ccc(CCNc2nc(NCc3ccccc3Oc3ccc(C(F)(F)F)cc3)nc(N3CCNCC3)n2)cc1` gave an IC50 of 1160 nM.

In the case of `CC(CNC(=O)C(c1cc2ccccc2o1)N1CCN(C(c2ccccc2)c2ccccc2)CC1)c1ccccc1` (stereo unspecified), the IC50 came to 630 nM.

Turning to `CCN1CCC(N(Cc2ccc(-c3ccc(C(F)(F)F)cc3)cc2)C(=O)Cn2c(CCc3cccc(F)c3F)cc(=O)c3ccc(OCc4ccccc4)cc32)CC1`, the IC50 was found to be 370 nM.

In the case of `CC(C)C[C@H](Nc1ccnc(NCC2CCCCC2)n1)C(=O)NCCc1ccccc1`, the half-inhibitory concentration (IC50) is 750 nM.

In turn, `CN1CCC(NCc2ccc(-c3ccc(C(F)(F)F)cc3)cc2)CC1` returned a half-inhibitory concentration (IC50) of 800 nM.

On to `CCc1cc(-c2onc(C(F)(F)F)c2-c2ccccc2)c(O)cc1OC`, for which the IC50 stood at 790 nM.

Regarding `c1ccc2cc3c(Nc4ccc(N5CCCCCC5)cc4)ccnc3cc2c1`, the half-inhibitory concentration (IC50) is 940 nM.

As to `CCCCC1(NC(=O)[C@H](CC(C)C)Nc2ccc(C#N)c3ccccc23)CCCCC1`, the IC50 stood at 800 nM.

`CCCNC(=O)C1CCN(C(c2ccccc2)c2ccc(Cl)c(Cl)c2)CC1` (stereo unspecified): the half-inhibitory concentration (IC50) was determined as 710 nM.

Consider `CN1CCN(c2cccc(Nc3nccc(NCC(O)c4ccccc4)n3)c2)CC1` (stereo unspecified), for which the half-inhibitory concentration (IC50) was 720 nM.

Compound `O=C(c1cc(-c2ccccc2)n[nH]1)N1CCN(S(=O)(=O)c2ccc(Cl)s2)CC1` gave an IC50 of 930 nM.

`CCC1(CC)C(=O)N=C(N2CCCCC2)N(C)C1=O` came in with an IC50 of 300 nM.

In turn, `COc1ccc(Nc2nccc(NCC(O)c3ccc(C(F)(F)F)cc3)n2)cc1` (stereo unspecified) yielded an IC50 of 550 nM.

As for `CN1CCC(OC(=O)c2cc3cc(-c4ccccc4)ccc3n2S(=O)(=O)c2ccccc2)CC1`, the IC50 was determined as 1090 nM.

For the compound `Nc1nccc2ccc(-c3ccc(Oc4ccccc4)cc3)cc12`, the IC50 came to 280 nM.

`CCN(CC)CCCC(C)N=C(Nc1ccc(C#N)cc1O)Nc1ccccc1Br` (stereo unspecified) yielded a concentration for half-maximal inhibition (IC50) of 1040 nM.

Take `CCOC(=O)c1c(C)noc1Nc1ccc(OC)cc1`: the IC50 came to 670 nM.

`O=C(c1cc2ccccc2o1)N1CCc2cc3nccc(N4CCN5CCC[C@H]5C4)c3cc21` returned an IC50 of 810 nM.

With `CCN1CCC(N(Cc2ccc(-c3ccc(C(F)(F)F)cc3)cc2)C(=O)Cn2c(CCc3cccc(F)c3F)cc(=O)c3c2CCC3)CC1`, the IC50 was 970 nM.

Take `CN1CCN(c2ccc(Nc3c(C(N)=O)cnc4cc(-c5ccoc5)ccc34)cc2C(F)(F)F)CC1`: the IC50 amounted to 780 nM.

For `Cc1cnc(-c2ccc(NC(=O)c3coc4ccc(N5C[C@@H](C)N(C)[C@@H](C)C5)cc34)cc2)o1`, the concentration for half-maximal inhibition (IC50) worked out at 650 nM.

The compound `Cc1cc(C(=O)Nc2ccc(OCc3ccccc3)cc2)on1` returned a half-maximal inhibitory concentration (IC50) of 990 nM.

The compound `O=C(C=CC(=O)N1CCCCC1)NCc1ccccc1` gave an IC50 of 730 nM.

`O=C(/C=C/c1ccc(Cl)c(Cl)c1)NC1CCN(Cc2cccc(O)c2)CC1`: the IC50 amounted to 880 nM.

Compound `CN1CCCN(Cc2ccc(-c3ccc(NC(=O)c4cccc(C#N)c4)cc3)cc2)CC1` gave an IC50 of 880 nM.

Consider `CCCNCc1ccc(-c2ccc(CN(CCOC)C(=O)c3cnc(C)cn3)cc2)nc1`, for which the IC50 was determined as 1250 nM.

Consider `COc1ccc(NC(=O)Nc2cc(C)nc3ccccc23)cc1Cl`, for which the IC50 came out at 690 nM.
